Reference: patent US8163699B2, “Method for the treatment of valvular disease” (Montreal Heart Institute, priority 2006, dated 2012)
Several values for one entry are separate records, joined by “and”; a condition that tells them apart may be missing. Equal values may be shown once.

Columns and labels:
Assay type in all cases: in vivo, New-Zealand White rabbits
aortic valve lesions [1] = experiment: Histochemistry of aortic valves (von Kossa, filipin, Sirius red, immunohistochemistry) in rabbit model of aortic valve stenosis
Text: An animal model adapted from that described by Drolet et al. (12) was used. Fifteen male New-Zealand White rabbits (2.7-3.0 kg, aged 12-13 weeks) were fed with a 0.5% cholesterol-enriched diet (Harlan, Indianapolis, Ind.) plus vitamin D2 (50000 UI per day; Sigma, Markham, Canada) in the drinking water until significant AVS, as defined by a decrease ≧10% of aortic valve area (AVA) or of the transvalvular velocities ratio (V1/V2), could be detected by echocardiography (12.9±2.4 weeks). The animals then returned to a standard diet (without vitamin D2) to mimic cholesterol lowering and were randomly assigned to receive either saline (control group, n=8) or the ApoA-1 mimetic peptide (treated group, n=7). Rabbits were given injections through the marginal ear vein of saline or of the ApoA-1 mimetic peptide (25 mg/kg) complexed with phospholipids (Compound A), 3 times per week for 2 weeks. Echocardiograms were performed serially (see Echocardiography Methods) every 3 to 4 days throughout the randomized treatment period. Two days after their last infusion, the animals underwent a final echocardiogram and were sacrificed, and the aortic valves were harvested for histological analyses. Blood samples were obtained through the ear artery at baseline, prior to treatment and before sacrifice. Total cholesterol, HDL cholesterol, triglycerides and calcium levels were measured with an automated filter photometer system (Dimension RxL Max, Dade Behring, Ill.). Hematoxylin-phloxin-safran, von Kossa and Sirius red (F3B, BDH, UK) stained sections were prepared for routine examination, tissue calcification and collagen studies respectively. Collagen fibers types I and III were quantified as previously described (13), on Sirius red picric acid stained sections under polarized light. For immunohistochemistry evaluation, all sections were preincubated with either mouse IgG2a monoclonal antibody against rabbit macrophage (RAM11, Dako, Canada) (1:100 dilution) or rabbit smooth muscle cell α-actin (Clone 1A4, Dako, Canada) (1:200 dilution). Species-appropriate biotinylated secondary antibodies were applied, followed by streptavidin horseradish peroxidase complex, visualized with azoethylcarbazol (AEC) and counterstained by Mayer's hematoxylin. Smooth muscle cells, macrophages and calcification areas were quantified in the ROA on digital images acquired at 40× magnification. Images from each section were digitally captured with the same illumination settings, and automatic computer-based analysis was performed with the same color threshold for all specimens. Data were expressed as percent labelled area in ROA. For assessment of tissue free cholesterol, 5 μm cryosections fixed in 4% paraformaldehyde in PBS (pH 7.4) were stained with filipin (13). Sections were incubated for 1 hour at room temperature in filipin complex (Sigma, Canada) dissolved in DMSO and diluted in PBS, mounted in Vectashield (Vector Laboratories, USA) and viewed by fluorescence microscopy using a Zeiss Axiovert 200M microscope with the DAPI filter set. Images were acquired with an AxioCam MRm digital camera mounted with a 0.63× C-mount adapter. Filipin data were expressed as arbitrary units of fluorescence intensity. Data are presented as mean±standard deviation. For the “pre-treatment” period, repeated measures analysis of variance (ANOVA) models were used to study the echocardiographic and serum measurements across time and between groups (treated vs. control groups). Models with time, group and group×time interaction as independent variables were used and comparisons between groups at a given time point were undertaken only in the presence of a significant group×time interaction. Otherwise, global conclusions were drawn based on the main group effects of the model. […]

[2] = Serum lipids and calcemia in rabbit model of aortic valve stenosis; conditions: for HDL-cholesterol / total cholesterol levels: treated group
Procedure: (§1) The animals then returned to a standard diet (without vitamin D2) to mimic cholesterol lowering and were randomly assigned to receive either saline (control group, n=8) or the ApoA-1 mimetic peptide (treated group, n=7). Rabbits were given injections through the marginal ear vein of saline or of the ApoA-1 mimetic peptide (25 mg/kg) complexed with phospholipids (Compound A), 3 times per week for 2 weeks. Echocardiograms were performed serially (see Echocardiography Methods) every 3 to 4 days throughout the randomized treatment period. Two days after their last infusion, the animals underwent a final echocardiogram and were sacrificed, and the aortic valves were harvested for histological analyses. Blood samples were obtained through the ear artery at baseline, prior to treatment and before sacrifice. Total cholesterol, HDL cholesterol, triglycerides and calcium levels were measured with an automated filter photometer system (Dimension RxL Max, Dade Behring, Ill.).
Data are presented as mean±standard deviation. For the “pre-treatment” period, repeated measures analysis of variance (ANOVA) models were used to study the echocardiographic and serum measurements across time and between groups (treated vs. control groups). Models with time, group and group×time interaction as independent variables were used and comparisons between groups at a given time point were undertaken only in the presence of a significant group×time interaction. Otherwise, global conclusions were drawn based on the main group effects of the model. For the randomized treatment period, repeated measures analysis of covariance (ANCOVA) models were used to study the echocardiographic and serum measurements across time and between groups (treated vs. control groups), adjusted for the baseline value of the response variable. The group×time interaction was also included in the ANCOVA models and comparisons between groups at a given time point were undertaken only in the presence of a significant group×time interaction. Otherwise, global conclusions were drawn based on the main group effects of the model. Histological variables were compared between treated and control groups using Student t-test. Relationships between histomorphometry and echocardiographic variables were evaluated using Pearson correlation coefficient. All analyses were performed with SAS release 8.2 (SAS Institute Inc., Cary, N.C.) and conducted at the 0.05 significance level.

aortic valve lesions [3] = experiment: Histomorphometry of aortic valves in rabbit model of aortic valve stenosis; conditions: treated group; post mortem after 2 weeks of treatment
Text: An animal model adapted from that described by Drolet et al. (12) was used. Fifteen male New-Zealand White rabbits (2.7-3.0 kg, aged 12-13 weeks) were fed with a 0.5% cholesterol-enriched diet (Harlan, Indianapolis, Ind.) plus vitamin D2 (50000 UI per day; Sigma, Markham, Canada) in the drinking water until significant AVS, as defined by a decrease ≧10% of aortic valve area (AVA) or of the transvalvular velocities ratio (V1/V2), could be detected by echocardiography (12.9±2.4 weeks). The animals then returned to a standard diet (without vitamin D2) to mimic cholesterol lowering and were randomly assigned to receive either saline (control group, n=8) or the ApoA-1 mimetic peptide (treated group, n=7). Rabbits were given injections through the marginal ear vein of saline or of the ApoA-1 mimetic peptide (25 mg/kg) complexed with phospholipids (Compound A), 3 times per week for 2 weeks. Echocardiograms were performed serially (see Echocardiography Methods) every 3 to 4 days throughout the randomized treatment period. Two days after their last infusion, the animals underwent a final echocardiogram and were sacrificed, and the aortic valves were harvested for histological analyses. Blood samples were obtained through the ear artery at baseline, prior to treatment and before sacrifice. Total cholesterol, HDL cholesterol, triglycerides and calcium levels were measured with an automated filter photometer system (Dimension RxL Max, Dade Behring, Ill.). The ascending aorta and aortic valve were opened longitudinally and the 3 valvular cusps were separated. […] Stained or immunohistochemically labeled tissue sections obtained from the central third of each cusp were analyzed with a computer-based digitizing image system (Image Pro Plus, version 5.1) using a light microscope (BX41, Olympus) connected to a digital video camera (Qcolor3, Olympus). […] Lesion area (LA) and leaflet lesion length (LLL) were measured. […] Relationships between histomorphometry and echocardiographic variables were evaluated using Pearson correlation coefficient. […]

[4] = test system: aortic valve stenosis (AVS); experiment: Echocardiography (aortic valve area, aortic valve thickness) in rabbit model of aortic valve stenosis; conditions: for Aortic valve area (AVA): 25 mg/kg i.v. 3 times per week; for Aortic valve thickness: treated rabbits
Text: A complex animal model of aortic valve stenosis has been developed in rabbits.
An animal model adapted from that described by Drolet et al. (12) was used. Fifteen male New-Zealand White rabbits (2.7-3.0 kg, aged 12-13 weeks) were fed with a 0.5% cholesterol-enriched diet (Harlan, Indianapolis, Ind.) plus vitamin D2 (50000 UI per day; Sigma, Markham, Canada) in the drinking water until significant AVS, as defined by a decrease ≧10% of aortic valve area (AVA) or of the transvalvular velocities ratio (V1/V2), could be detected by echocardiography (12.9±2.4 weeks).
as §1
Transthoracic echocardiographic studies were performed at baseline, on a weekly basis starting at 8 weeks of hypercholesterolemic diet until significant AVS developed, and then after 4, 7, 10 and 14 days of ApoA-1 mimetic peptide or saline control treatments. Studies were carried out with an S12 probe using a standard echocardiographic system (Sonos 5500, Philips Medical Imaging, MA). Intra-muscular injections of ketamine (45 mg/kg) and midazolam (0.75 mg/kg) were used for sedation.
Parasternal long and short-axis views of the aortic valve were recorded to assess leaflet morphology. Left ventricular outflow tract (LVOT) diameter was measured in a zoomed parasternal long-axis view, and LVOT cross-sectional area (CSALVOT) was calculated according to: CSALVOT=π(DLVOT/2)^2. LVOT velocity (V1) and velocity time integral (VTILVOT) were obtained with pulsed-wave Doppler sampled proximal to the aortic valve in the apical 5-chamber view. Continuous wave (CW) Doppler interrogation across the aortic valve was used to obtain transvalvular maximal velocity (V2) and VTI (VTIAO) in the same view. V1/V2 ratio was calculated in the pre-treatment period to determine AVS development. Aortic valve area (AVA) was obtained at each time point by the continuity equation: AVA=CSALVOT×(VTILVOT/[…]). Aortic valve thickness in its middle portion was measured at end-diastole in a zoomed parasternal long-axis view at baseline, before randomized therapy, and at the final echocardiographic exam.
The average of three consecutive cardiac cycles was used for each measurement. Special care was taken to obtain similar imaging planes on serial examinations by reviewing previous recordings before follow-up study. All echocardiographic imaging and measurements were performed throughout the protocol by the same experienced investigator blinded to randomized treatment assignment.
Data are presented as mean±standard deviation. For the “pre-treatment” period, repeated measures analysis of variance (ANOVA) models were used to study the echocardiographic and serum measurements across time and between groups (treated vs. control groups). Models with time, group and group×time interaction as independent variables were used and comparisons between groups at a given time point were undertaken only in the presence of a significant group×time interaction. Otherwise, global conclusions were drawn based on the main group effects of the model. […]

[5] = treated rabbits, Sirius red, polarized light
[6] = at the time of randomization (pre-treatment value)
[7] = treated group, after 7 days of treatment
[8] = treated group, after 10 days of treatment
[9] = treated group, after 14 days of treatment

Which “decrease in free cholesterol compared to controls” value (aortic valve lesions [1]; treated animals vs. controls, first 10 μm at luminal edge of lesions, not statistically significant, P=0.231) does the source give for “H-Pro-Val-Leu-Asp-Leu-Phe-Arg-Glu-Leu-Leu-Asn-Glu-Leu-Leu-Glu-Ala-Leu-Lys-Gln-Lys-Leu-Lys-OH (H-PVLDLFRELLNELLEALKQKLK-OH; not fully specified) [ApoA-1 mimetic peptide, ApoA-1 mimetic peptide complexed with phospholipids, mimicking nascent HDL]” here?
Its value is 41%.

What about the “free cholesterol (filipin fluorescent signal)” value (aortic valve lesions [1]; treated animals, within the first 10 μm at the luminal edge of lesions) of the same substance?
The value was 221±54 arbitrary units of fluorescence intensity.

And the “percentage of rabbits with calcium deposits in the lesion core in the sinuses of Valsalva” value (aortic valve lesions [1]; treated group)?
The value was 57%.

What about the “decrease of calcification area compared to controls” value (aortic valve lesions [1]; treated group vs. controls, von Kossa staining, strong trend, P=0.063) of the same substance?
The value was 77%.

And the “percentage of the sinus of Valsalva area occupied by calcifications” value (aortic valve lesions [1]; treated group, von Kossa staining)?
The value was 1.6±2.0%.

And the “percentage of collagen type I fibers in the ROA” value (aortic valve lesions [1]; [5])?
The value was 5.5±5.6 %/ROA.

And the “percentage of collagen type III fibers in the ROA” value (aortic valve lesions [1]; [5])?
Its value is 19.1±11.3 %/ROA.

And the macrophage areas (aortic valve lesions [1]; treated vs. control group, RAM11 immunohistochemistry)?
Its macrophage areas is “no significant differences between groups”.

What about the α-actin positive areas (aortic valve lesions [1]; treated vs. control group, smooth muscle cell α-actin immunohistochemistry) of the same substance?
The α-actin positive areas was “no significant differences between groups”.

And the HDL-cholesterol ([2]; at end of treatment)?
Its HDL-cholesterol is 0.45 ± 0.17 mmol/L.

What about the total cholesterol levels ([2]; at end of treatment) of the same substance?
Its total cholesterol levels is 17.57 ± 10.32 mmol/L.

And the HDL-cholesterol [2, 6]?
Its HDL-cholesterol is 0.50 ± 0.15 mmol/L.

And the total cholesterol levels [2, 6]?
Its total cholesterol levels is 20.13 ± 5.18 mmol/L.

And the triglyceride levels ([2]; treated vs. control group during treatment period, P=0.544)?
The triglyceride levels was “similar”.

And the “% LLL (percentage of total leaflet length occupied by lesion)” value (aortic valve lesions [3])?
Its value is 55.7±24.3%.

And the “Lesion extent at the base of valve leaflets and sinuses of Valsalva” value (aortic valve lesions [3])?
Its value is 52.8±12.5%.

What about the “percentage of lesion area (LA) per region of analysis (ROA)” value (aortic valve lesions [3]) of the same substance?
Its value is 52.8±12.5 %/ROA.

What about the “Aortic valve area (AVA)” value [4, 7] of the same substance?
Its value is 21.9±3.6 mm^2.

What about the “Aortic valve area (AVA)” value [4, 8] of the same substance?
Its value is 23.0±4.1 mm^2.

And the “Aortic valve area (AVA)” value [4, 9]?
Its value is 23.8±3.1 mm^2.

What about the “relative increase of AVA” value [4, 7] of the same substance?
The value was 14.2±3.5% and 14.2%.

What about the “relative increase of AVA” value [4, 8] of the same substance?
The value was 19.8±3.5% and 19.8%.

And the “relative increase of AVA” value [4, 9]?
The value was 24.6±2.0% and 24% and 24.6%.

And the “decrease of aortic valve thickness” value ([4]; treated group, within 14 days of treatment)?
The value was 21%.

And the Aortic valve thickness ([4]; at end of treatment (14 days))?
Its Aortic valve thickness is 0.075±0.033 cm.

What about the Aortic valve thickness ([4]; before randomization (pre-treatment value)) of the same substance?
Its Aortic valve thickness is 0.094±0.034 cm.
